Data: patent US20220031845A1, “DILUENTS FOR COMPOSITIONS OF CANNABINOIDS AND USES THEREOF” (KANABO RESEARCH LTD., priority 2019, published 2022)

How the values were obtained:
[1] = Stability of oversaturated CBD blend to crystallization; assay type: physicochemical; set-up: key: +: crystallization; −: no crystallization; settings: one week at 10 or 22° C.
Protocol: Vials were prepared with 5 ml of oversaturated blend of CBD with different diluent. The blend was composed of CBD distilled oil (containing 90% CBD and less than 1% bisabolol) or CBD isolate (more than 99% CBD), and natural bisabolol and phytol. The stability of the solution to crystallization in the vial after a week of storage at either 10 or 22° C. is presented in Table 7.

[2] = Crystallization of CBD blends with different diluents after addition of crystal seed; assay type: physicochemical; set-up: key to crystallization of CBD: +: crystallization; −: no crystallization; settings: for crystallization of CBD: 1% flavor, crystal seed, 22° C., one week; for concentration of CBD stabilized in the composition: at the diluent concentration that prevents crystallization
Protocol: 5 g of the following different blends were prepared. The blends contained a CBD distillate containing 92% of CBD, a diluent at different concentrations and 1% natural flavor (Girl School cookies from Floraplex—USA). The diluent was phytol, natural bisabolol or a combination of phytol and natural bisabolol. 2 mg of crystal seed were added to the vial to initiate crystallization. The vials were stored at 22° C. The vials were checked after a week to see if there is crystallization.

[3] = 28% diluent in blend, CBD distillate 92% CBD
[4] = 32% diluent in blend, CBD distillate 92% CBD
[5] = 36% diluent in blend, CBD distillate 92% CBD

Row | Structure (SMILES) | Crystallization ([1]; CBD 90% distilled oil, 5% diluent in blend) | Crystallization ([1]; CBD 90% distilled oil, 10% diluent in blend) | Crystallization ([1]; CBD 90% distilled oil, 20% diluent in blend) | Crystallization ([1]; CBD isolate, 10% diluent in blend) | Crystallization ([1]; CBD isolate, 20% diluent in blend) | crystallization of CBD [2, 3] | crystallization of CBD [2, 4] | crystallization of CBD [2, 5] | concentration of CBD stabilized in the composition [2] | Crystallization ([1]; CBD 90% distilled oil, 15% diluent in blend) | crystallization of CBD ([2]; 40% diluent in blend, CBD distillate 92% CBD) | crystallization of CBD ([2]; 44% diluent in blend, CBD distillate 92% CBD) | concentration of diluent required to prevent crystallization ([2]; upon addition of crystallization seeds, CBD distillate 92% CBD)
1 | CC(C)=CCC[C@](C)(O)C1CC=C(C)CC1 (stereo partly drawn) [Bisabolol, α-(−)-bisabolol] | − | − | − | + | − | + | − | − | up to 65% |  |  |  | 
2 | C/C(=C\CO)CCC[C@H](C)CCC[C@H](C)CCCC(C)C [Phytol, phytol] |  |  |  |  |  | + | + | + | about 50% | + | + | − | about 44%
